In patent US6979470B2 (priority 2001, dated 2005):

Key:
COX-2 [1] = target: T1, COX-2 (Mus musculus, UniProt Q05769); experiment: cell-based; type: cell-based
T1 construct: LPS, which was used to induce the expression of COX-2 in the RAW 264.7 cells; host or cells: RAW 264.7
T1 sequence (Q05769 18-604): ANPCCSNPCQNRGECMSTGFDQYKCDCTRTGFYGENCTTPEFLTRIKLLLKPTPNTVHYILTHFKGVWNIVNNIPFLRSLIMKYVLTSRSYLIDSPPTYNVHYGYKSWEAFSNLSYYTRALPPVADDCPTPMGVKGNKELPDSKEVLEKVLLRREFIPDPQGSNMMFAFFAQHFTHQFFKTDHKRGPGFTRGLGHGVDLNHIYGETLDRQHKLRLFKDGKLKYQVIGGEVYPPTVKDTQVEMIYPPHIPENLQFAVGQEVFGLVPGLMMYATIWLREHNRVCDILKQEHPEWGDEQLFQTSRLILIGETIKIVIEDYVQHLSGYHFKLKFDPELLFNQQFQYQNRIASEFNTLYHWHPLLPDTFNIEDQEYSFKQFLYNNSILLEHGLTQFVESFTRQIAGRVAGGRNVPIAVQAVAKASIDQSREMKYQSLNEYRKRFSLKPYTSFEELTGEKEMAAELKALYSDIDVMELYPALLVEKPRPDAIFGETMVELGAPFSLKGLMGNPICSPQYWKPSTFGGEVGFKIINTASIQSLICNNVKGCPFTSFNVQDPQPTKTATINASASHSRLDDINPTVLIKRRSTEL
Procedure: On day one of the experiment, the log phase 264.7 cells were plated at 8×10^4 cells per well in 0.2 mL growth medium per well in a 96-well tissue culture plate. After 6 to 8 hours post plating, 100 μL of growth medium from each well was removed and replaced with 100 μL fresh medium. […] It was mixed until dissolved and stored at 4° C. Immediately before use, it was thawed at room temperature or in a 37° C. water bath. A new solution was prepared every 60 days.
On day two of the experiment, the test materials were prepared as 1000× stock in DMSO. For example, if the final concentration of the test material was to be 10 μg/mL, a 10 mg/mL stock was prepared by dissolving 10 mg of the test material in 1 mL of DMSO. Fresh test materials were prepared on day 2 of the experiment. In 1.7 mL microfuge tubes, 1 mL DMEM without FBS was added to obtain test concentrations of 0.05, 0.10, 0.5, and 1.0 μg/mL. 2 μL of the 1000×DMSO stock of the test material was added to the 1 mL of medium without FBS. The tube contained the final concentration of the test material was concentrated 2-fold. The tube was placed in incubator for 10 minutes to equilibrate.
One-hundred mL of medium was removed from each well of the cell plates prepared on day one. One-hundred mL of equilibrated 2× final concentration the test compounds were added to cells and incubated for 90 minutes. […]

COX-2 [2] = details: reported, specificity for COX-2 over COX-1; cited from earlier work

Structure (SMILES) | SPECIFICIY COX-1/COX-2 (COX-2 [1]; COX-1 IC50 (enzyme) / COX-2 IC50 (RAW 264.7)) | IC50 (COX-2 [1]; second compound alone, PGE2 production by COX-2, RAW 264.7 cells, 24 h LPS) [µM] | COX-2 specificity (COX-2 [2])
C=C1CC[C@@H]2[C@](C)(CO)[C@H](O)CC[C@@]2(C)[C@@H]1C/C=C1/C(=O)OC[C@H]1O [Andrographolide] | 5.2 | 762 | 
CC(=O)Oc1ccccc1C(=O)O [aspirin] |  |  | 0.6
